Source: PubChem BioAssay (NCI)
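In this assay, cells in 96-well plates receive the compound at five concentrations for 48 hours. Endpoints are linearly interpolated between the surrounding concentrations. GI50: concentration for 50% inhibition of growth. TGI denotes the concentration required for complete inhibition of growth.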

Legend:
Assay in all cases: inhibition of tumour cell growth, NCI panel, 48 h
NCI-H522 lung = system: NCI-H522 lung
MCF7 breast = system: MCF7 breast
KM12 colon = system: KM12 colon
SNB-75 CNS = system: SNB-75 CNS
MALME-3M melanoma = system: MALME-3M melanoma
OVCAR-5 ovarian = system: OVCAR-5 ovarian
SF-268 CNS = system: SF-268 CNS
SF-295 CNS = system: SF-295 CNS
LOX IMVI melanoma = system: LOX IMVI melanoma
NCI-H226 lung = system: NCI-H226 lung
ACHN renal = system: ACHN renal
HCT-116 colon = system: HCT-116 colon
A498 renal = system: A498 renal
TK-10 renal = system: TK-10 renal
NCI/ADR-RES ovarian = system: NCI/ADR-RES ovarian
SK-MEL-2 melanoma = system: SK-MEL-2 melanoma
MOLT-4 leukemia = system: MOLT-4 leukemia
UO-31 renal = system: UO-31 renal
HOP-62 NSCLC = system: HOP-62 NSCLC
HS 578T breast = system: HS 578T breast
UACC-257 melanoma = system: UACC-257 melanoma
CCRF-CEM leukemia = system: CCRF-CEM leukemia
UACC-62 melanoma = system: UACC-62 melanoma
786-0 renal = system: 786-0 renal
MDA-MB-468 breast = system: MDA-MB-468 breast
HCC-2998 colon = system: HCC-2998 colon
SK-MEL-5 melanoma = system: SK-MEL-5 melanoma
SNB-19 CNS = system: SNB-19 CNS
SN12C renal = system: SN12C renal

N/C(=N\c1nc2ccccc2s1)NC(=O)Nc1ccccc1F was tested, and the GI50 (NCI-H522 lung) was 0.412 µM, the TGI (NCI-H522 lung) was 8.84 µM and the GI50 (MCF7 breast) was 0.424 µM. The TGI (MCF7 breast) was 20.5 µM, the GI50 (KM12 colon) was 0.475 µM and the TGI (KM12 colon) was 37.6 µM. The GI50 (SNB-75 CNS) was 0.201 µM, the TGI (SNB-75 CNS) was 7.22 µM and the GI50 (MALME-3M melanoma) was 1.21 µM. For the same compound, the TGI (MALME-3M melanoma) was 22.5 µM, the GI50 (OVCAR-5 ovarian) was 3.28 µM and the TGI (OVCAR-5 ovarian) was 31.9 µM. For the same compound, the GI50 (SF-268 CNS) was 3.54 µM, the TGI (SF-268 CNS) was greater than 100 µM and the GI50 (SF-295 CNS) was 0.401 µM. It also gave a TGI (SF-295 CNS) of 15.5 µM, a GI50 (LOX IMVI melanoma) of 0.62 µM and a TGI (LOX IMVI melanoma) of 19.8 µM. It also gave a GI50 (NCI-H226 lung) of 3.29 µM, a TGI (NCI-H226 lung) of 25 µM and a GI50 (ACHN renal) of 2.45 µM. It also gave a TGI (ACHN renal) of 20.9 µM, a GI50 (HCT-116 colon) of 0.462 µM and a TGI (HCT-116 colon) of 18.5 µM. The GI50 (A498 renal) was 17.8 µM, the TGI (A498 renal) was 34.1 µM and the GI50 (TK-10 renal) was 12.1 µM. It also gave a TGI (TK-10 renal) of 30 µM, a GI50 (NCI/ADR-RES ovarian) of 0.364 µM and a TGI (NCI/ADR-RES ovarian) of 3.11 µM. It also gave a GI50 (SK-MEL-2 melanoma) of 0.321 µM, a TGI (SK-MEL-2 melanoma) of 10.3 µM and a GI50 (MOLT-4 leukemia) of 0.57 µM. For the same compound, the TGI (MOLT-4 leukemia) was 69.8 µM, the GI50 (UO-31 renal) was 1.7 µM and the TGI (UO-31 renal) was 21.8 µM. The GI50 (HOP-62 NSCLC) was 0.829 µM, the TGI (HOP-62 NSCLC) was 15.6 µM and the GI50 (HS 578T breast) was 0.513 µM. It also gave a TGI (HS 578T breast) of 19.5 µM, a GI50 (UACC-257 melanoma) of 14.4 µM and a TGI (UACC-257 melanoma) of 75.4 µM. For the same compound, the GI50 (CCRF-CEM leukemia) was 0.694 µM, the TGI (CCRF-CEM leukemia) was greater than 100 µM and the GI50 (UACC-62 melanoma) was 0.387 µM. It also gave a TGI (UACC-62 melanoma) of 18.9 µM, a GI50 (786-0 renal) of 6.41 µM and a TGI (786-0 renal) of 22 µM. For the same compound, the GI50 (MDA-MB-468 breast) was 0.817 µM, the TGI (MDA-MB-468 breast) was 3.42 µM and the GI50 (HCC-2998 colon) was 1.68 µM. It also gave a TGI (HCC-2998 colon) of 23.1 µM, a GI50 (SK-MEL-5 melanoma) of 0.614 µM and a TGI (SK-MEL-5 melanoma) of 11.1 µM. It also gave a GI50 (SNB-19 CNS) of 1.73 µM, a TGI (SNB-19 CNS) of 24 µM and a GI50 (SN12C renal) of 0.842 µM. For the same compound, the TGI (SN12C renal) was 25.8 µM.
